Assay results: US20110177054A1, “USE OF ENDO-LYSOSOMAL SYSTEM AND SECRETED VESICLES (EXOSOME-LIKE) IN TREATMENTS AND DIAGNOSTICS BASED ON SMALL RNA AND EXPERIMENTAL STUDY OF SMALL RNA” (priority 2008, published 2011)

Assays:
BIG2 = target: T1, BIG2 (Homo sapiens, UniProt Q9Y6D5); test: Exosome release after RNAi of BIG2 (protein in purified exosome pellets); type: cell-based
T1 construct: endogenous in cells; host or cells: Mono-Mac6 monocytic cells
Procedure: FIG. 5: Differential centrifugation enriches exosomes greatly. (A) Western blot of 50 μg of cell or exosome lysate with markers of exosomes (CD63, Tfr R, or Ub). (B) Cell counts and total protein quantitation of exosome pellets 36 h after transfection of cells with siRNA targeting BIG2 or control. (C) Electron microscopy of resuspended exosome pellets after uranyl acetate staining. (D) Dynamic light scattering analysis of purified exosome pellets resuspended in PBS (Phosphate buffered saline). Top graph represents five sets of measurements as size in nm (x-axis) as a function of relative number (y-axis) of particles detected. Bottom graph represents size in nm (x-axis) as a function of volume (y-axis). Measurements by volume exponentially amplify the representation of larger particles present.
FIG. 9: Purified exosomes are enriched in GW182, but not Dcp1a or Ge-1. (a) Equal amounts of proteins from exosomes and cells were analyzed by western blotting for exosome-enriched protein, CD63. Electron microscopy of resuspended exosome pellets. […] Error bars, SEM of five measurements. (c) RNAi of BIG2 reduces the recovery of proteins in exosome preparations (paired t-test, n=4, p=0.0194, a=0.05). […] (d) Equal amounts of proteins from exosomes and whole cells were analyzed by western blotting. […]

[1] = tested on: miR-K12-4 target reporter; test: Intercellular transfer of miR-K12-4 by exosomes (psiCHECK dual luciferase reporter in target cells); type: cell-based; conditions: BIG2 siRNA delivered to exosome producing cells simultaneously with miR-K12-4 or miR-206 plasmids
Procedure: FIG. 7: exosomes transfer active siRNA and miRNA to target cells in a BIG2-dependent manner. (A) Exosomes purified from cells transfected with GFP siRNA or control siRNA were incubated with cells transfected with GFP. GFP expression was examined 8 hours or 24 hours later by flow cytometry. GFP expression was calculated as 1-(GFP expression GFP siRNA exosomes/GFP expression control siRNA exosomes)×100. (n=3, p<0.05, paired t-test). (B) Exosomes purified from cells transfected with miR-206 or miR-K12-4 were incubated with cells transfected with a target site for miR-K12-4 inserted into the psiCHECK dual luciferase plasmid. Activity of luciferases was measured 8 hours later. Inhibition of Firefly luciferase expression was calculated as: 1-(Firefly luciferase/Renilla luciferase miR-K12-4 exosomes)/(Firefly luciferase/Renilla luciferase miR-206 exosomes)×100. (n=4, p<0.05, paired t-test). Error bars represent standard error of the mean.
FIG. 8: Exosomes mediate transfer of miRNA activity in a BIG2-dependent manner. […] Activity of luciferases was measured after 8 hours (n=4, p=0.0287, t-test, a=0.05). […] GFP expression was measured by FACS analysis after 8 or 24 h (right). […]

T1 sequence (Q9Y6D5 whole entry): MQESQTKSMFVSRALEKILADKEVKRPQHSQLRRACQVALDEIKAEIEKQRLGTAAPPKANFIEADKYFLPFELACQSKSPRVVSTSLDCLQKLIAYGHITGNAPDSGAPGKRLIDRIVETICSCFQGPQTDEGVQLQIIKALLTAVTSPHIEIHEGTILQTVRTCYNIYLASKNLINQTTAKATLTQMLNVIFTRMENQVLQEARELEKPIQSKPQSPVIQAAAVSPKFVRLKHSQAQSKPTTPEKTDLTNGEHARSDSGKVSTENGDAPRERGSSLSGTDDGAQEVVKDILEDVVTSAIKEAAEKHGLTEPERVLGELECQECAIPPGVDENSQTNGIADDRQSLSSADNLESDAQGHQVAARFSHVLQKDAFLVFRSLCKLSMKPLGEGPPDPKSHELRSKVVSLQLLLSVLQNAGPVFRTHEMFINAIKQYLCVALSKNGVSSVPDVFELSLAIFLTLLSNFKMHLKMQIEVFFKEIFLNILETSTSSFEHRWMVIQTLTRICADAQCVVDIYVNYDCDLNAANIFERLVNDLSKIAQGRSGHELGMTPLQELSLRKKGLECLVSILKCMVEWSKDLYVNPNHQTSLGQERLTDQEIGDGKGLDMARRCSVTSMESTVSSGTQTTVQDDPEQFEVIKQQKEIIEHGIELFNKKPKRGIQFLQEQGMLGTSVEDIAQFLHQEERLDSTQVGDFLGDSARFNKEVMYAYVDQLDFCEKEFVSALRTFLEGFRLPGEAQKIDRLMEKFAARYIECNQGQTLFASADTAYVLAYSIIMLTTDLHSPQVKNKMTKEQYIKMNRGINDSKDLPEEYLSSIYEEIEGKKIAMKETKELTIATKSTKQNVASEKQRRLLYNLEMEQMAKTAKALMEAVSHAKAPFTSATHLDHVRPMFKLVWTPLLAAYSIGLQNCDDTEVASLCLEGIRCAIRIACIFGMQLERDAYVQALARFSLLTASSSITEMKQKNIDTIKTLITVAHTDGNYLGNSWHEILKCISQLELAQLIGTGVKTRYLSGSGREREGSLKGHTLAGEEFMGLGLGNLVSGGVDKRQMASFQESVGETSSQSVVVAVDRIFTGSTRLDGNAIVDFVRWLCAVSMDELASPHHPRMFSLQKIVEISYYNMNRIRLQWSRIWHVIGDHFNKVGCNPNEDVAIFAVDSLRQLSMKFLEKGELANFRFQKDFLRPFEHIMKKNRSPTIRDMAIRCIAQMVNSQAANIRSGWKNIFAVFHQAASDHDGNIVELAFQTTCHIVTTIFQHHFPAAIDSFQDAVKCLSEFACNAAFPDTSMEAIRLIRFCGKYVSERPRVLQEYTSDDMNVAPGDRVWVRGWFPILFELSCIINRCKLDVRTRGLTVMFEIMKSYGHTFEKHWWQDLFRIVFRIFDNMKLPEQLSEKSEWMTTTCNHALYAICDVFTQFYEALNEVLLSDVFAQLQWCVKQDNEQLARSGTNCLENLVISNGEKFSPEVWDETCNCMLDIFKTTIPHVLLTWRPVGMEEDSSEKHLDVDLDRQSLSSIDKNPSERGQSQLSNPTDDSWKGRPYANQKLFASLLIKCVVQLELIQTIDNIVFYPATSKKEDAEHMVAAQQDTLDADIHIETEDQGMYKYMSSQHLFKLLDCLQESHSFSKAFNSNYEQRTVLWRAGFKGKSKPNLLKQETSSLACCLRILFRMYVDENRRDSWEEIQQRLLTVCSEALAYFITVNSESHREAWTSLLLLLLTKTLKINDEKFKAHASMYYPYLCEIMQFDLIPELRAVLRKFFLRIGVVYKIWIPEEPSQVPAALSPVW

With “BIG2 siRNA: siRNA targeting BIG2: CGAUGAAAUUAAAGCAGAA (SEQ ID NO. 11) (listed as RNA, chemistry not given here)” the “recovery of proteins in exosome preparations” value (BIG2; RNAi of BIG2 vs control, paired t-test n=4 p=0.0194) was “reduces”, the “reduction of exosome release / vesicle yield” value (BIG2; siRNA targeting BIG2 vs control siRNA, monocytic cells, transfection efficiency ~50%) was roughly 50% and the “knockdown of miR-K12-4 reporter expression in target cells by exosomes” value [1] was “inhibited knockdown”.
